1 compound from patent US9731001B2, “Three-dimensional cavities of dendritic cell immunoreceptor (DCIR), compounds binding thereto and therapeutic applications related to inhibition of human immunodeficiency virus type-1 (HIV-1)” (priority 2011, dated 2017) can be followed below.

Holding throughout (assay type): cell-based
In assay [1] the test system is HIV-1 (NL4-3/Balenv). In words: HIV-1 binding assay on iMDDCs (p24). The note with it: IM-MDDCs, 10 μM pre-incubation 10 min, NL4-3balenv 60 min. The procedure:
(§1) FIG. 7 is bar graphs showing that selected site A and site B inhibitors decrease HIV-1 binding and infection of IM-MDDCs. Upper panel: IM-MDDCs were treated with two chemical inhibitors directed against site A (A1 and A4) and two inhibitors directed against site B (B1 and B2) (or DMSO) for 10 min at 37° C. Next, cells were pulsed with NL4-3balenv for 60 min at 37° C. and rinsed extensively before measuring p24 content. Lower panel: In some experiments, similarly treated IM-MDDCs were pulsed with NL4-3balenv for 2 h at 37° C., rinsed extensively, and maintained in complete culture medium supplemented with GM-CSF and IL-4 for up to 9 days with medium replenishment every 3 days. Cell-free culture supernatants were quantified by measuring p24 content. Data shown correspond to the means±SEM of 3 independent experiments performed in triplicate. The asterisks denotes statistically significant data (*, P<0.05; **, P<0.01; ***, P<0.001).
(§2) For assessing binding/entry, iMDDCs (3×10^5 cells in a final volume of 300 μl) were pre-treated with 10 μM of different chemical inhibitors for 10 min and exposed to NL4-3/Balenv (30 ng of p24) for 60 min at 37° C. After three washes with PBS, cells were re-suspended in PBS containing 1% BSA. The p24 content was determined by ELISA, while susceptibility of iMDDCs to HIV-1 infection was assessed by initially exposing 3×10^5 cells to NL4-3/Balenv (30 ng) at 37° C. for 2 h. After three washes with PBS, cells were maintained in complete RPMI 1640 supplemented with GM-CSF and IL-4 in 96-well plates, in a final volume of 200 μl. Every 3 days and for a 9-day period, half of the conditioned medium was collected and kept at −20° C. until assayed. Virus production was estimated as above by measuring p24 levels by ELISA.

Assay [2] has as its system HIV-1 (NL4-3/Balenv). In words: HIV-1 infection assay on iMDDCs (p24 in supernatant). The following applies: IM-MDDCs, NL4-3balenv 2 h, culture up to 9 days. The procedure: as §1, §2
A further assay concerns the target T1, DCIR (Homo sapiens, UniProt Q9UMR7).
T1 construct: expressed in transfected cells; host or cells: Raji-CD4 (human B cell line stably expressing human CD4), retroviral transduction
T1 sequence (Q9UMR7 1-237): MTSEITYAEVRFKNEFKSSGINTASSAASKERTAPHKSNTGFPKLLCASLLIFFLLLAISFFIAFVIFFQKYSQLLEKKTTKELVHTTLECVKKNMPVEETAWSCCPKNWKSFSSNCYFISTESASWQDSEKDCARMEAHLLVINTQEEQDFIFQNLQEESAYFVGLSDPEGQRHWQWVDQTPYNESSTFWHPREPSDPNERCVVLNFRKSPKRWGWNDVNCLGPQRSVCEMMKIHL
In words: HIV-1 binding/entry assay on Raji-CD4-DCIR cells (cell-associated p24). The following applies: 10 μM pre-treatment 10 min; NL4-3 60 min; p24 content. The procedure: FIG. 4 is a bar graph showing that inhibitors decrease HIV-1 binding on DCIR. Raji-CD4-DCIR cells were treated with 10 μM of four site A inhibitors (A1, A2, A3 and A4) and three site B inhibitors (B1, B2 and B3) (or with vehicle (DMSO) only) for 10 min at 37° C. Thereafter, cells were pulsed with NL4-3 for 60 min. After three washes with PBS to remove unadsorbed virus, the abundance of cell-associated viruses was quantified by measuring p24 content. Data shown correspond to the means±SEM of three independent experiments performed with triplicate samples. The asterisk (*) denotes statistically significant data (*, P<0.05, ** P<0.01, *** P<0.001).
(§3) Where indicated, 1×10^6 parental Raji-CD4 cells (DCIR-negative), Raji-CD4-DCIR or Raji-DC-SIGN transfectants were pre-treated with the indicated amount of a chemical inhibitor for 10 min. Cells were then pulsed with NL4-3 (an equivalent of 100 ng of p24) for 60 min at 37° C. The virus-cell mixture was then washed three times with PBS to remove unbound virus and re-suspended in PBS containing 1% BSA. Binding/entry was then determined by the p24 content by ELISA as above. For the infection assay, Raji-CD4 and Raji-CD4-DCIR (1×10^6 cells) were exposed to NL4-3 viral stock (100 ng of p24) for 2 h at 37° C. After three washes with PBS to remove excess virus, cells were maintained in culture for up to 9 days. Cell-free culture supernatants were collected at the indicated time points and assayed for p24 content.

In a further assay the target is T2, DC-SIGN (Homo sapiens, UniProt Q9NNX6).
T2 construct: expressed in transfected cells; host or cells: Raji cells stably transfected with a DC-SIGN plasmid
T2 sequence (Q9NNX6 1-404): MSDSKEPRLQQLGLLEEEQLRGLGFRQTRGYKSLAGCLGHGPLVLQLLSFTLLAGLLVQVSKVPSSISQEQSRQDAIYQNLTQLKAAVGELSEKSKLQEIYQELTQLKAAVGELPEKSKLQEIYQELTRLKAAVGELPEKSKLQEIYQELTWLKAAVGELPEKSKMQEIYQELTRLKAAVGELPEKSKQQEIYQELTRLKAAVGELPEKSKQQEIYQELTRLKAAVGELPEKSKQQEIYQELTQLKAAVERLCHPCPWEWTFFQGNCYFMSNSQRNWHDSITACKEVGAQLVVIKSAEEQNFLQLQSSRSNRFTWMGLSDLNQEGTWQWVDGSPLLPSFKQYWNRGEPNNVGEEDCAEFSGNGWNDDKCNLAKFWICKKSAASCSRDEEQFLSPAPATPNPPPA
In words: HIV-1 binding to Raji-DC-SIGN cells (p24). The following applies: NL4-3 60 min. How it is done: Raji-DC-SIGN cells were treated for 10 min at 37° C. with inhibitors A1 and A4 directed against the site A and B1 and B2 directed against the site B, or with DMSO. Afterwards, cells were pulsed with NL4-3 for 60 min, rinsed thrice with PBS were made to remove unadsorbed virus, and cell-associated viruses were quantified by measuring p24 content. Data shown correspond to the means±SEM of 3 independent experiments performed in triplicate.
as §3

In a further assay the test system is HIV-1 (NL4-3). In words: HIV-1 infection assay on Raji-CD4 and Raji-CD4-DCIR cells (p24 in supernatant). The following applies: Raji-CD4 vs Raji-CD4-DCIR, NL4-3 2 h, culture 3 d. The procedure: FIG. 5 is a bar graph showing that specific inhibitors against the site A (A1, A4) and site B (B1, B2) decrease infectivity of Raji-CD4-DCIR. Raji-CD4 and Raji-CD4-DCIR were treated with the inhibitors selected following experiments described in FIG. 4, or DMSO. Cells were then exposed to NL4-3 for 2 h, rinsed and maintained in culture for 3d. Cell-free culture supernatants were collected and assayed for p24 content. Data shown correspond to the means±SEM from 3 independent experiments performed with triplicate samples. The asterisk (*) denotes statistically significant data (*, P<0.05, ** P<0.01, *** P<0.001).
as §3

As to `c1ccc(-c2ccc(-c3ccccn3)nn2)nc1` [Compound A4, 3,6-di-2 pyridinylpyridazine], the “HIV-1 binding to DCs” value with HIV-1 (NL4-3/Balenv) [1] is reported as “decreased significantly”. In the assay on HIV-1 (NL4-3/Balenv) [2], the “productive infection of DCs” value was “blocked productive infection”. Besides, the “HIV-1 attachment to Raji-CD4-DCIR cells” value on DCIR is on record as “statistically significant decrease”. Further, the “HIV-1 binding to DC-SIGN” value at DC-SIGN is listed as “do not block HIV-1 attachment to DC-SIGN”. For the same compound, the HIV-1 production entry in the assay on HIV-1 (NL4-3) was “decreased HIV-1 production only in DCIR-expressing cells”.
